Here are results for 75 compounds from PubChem BioAssay AID179 (DTP/NCI, 2004).

Structures are written as SMILES. “And” between values parts separate entries of the source, which are not always exact repeats. Identical values can stand only once. The source made the active and inactive calls.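 How the source made its calls: active means compounds giving half or more protection of infected cells from virus-caused growth loss, again on retest; inactive means the rest.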 Where only a bound is given, the exact number is not on record here.

This assay deals with CEM cells HIV-1 protection, formazan growth assay. The assay can be described thus: NCI AIDS Antiviral Assay. As to conditions: for IC50: measured here: growth of uninfected CEM cells. The method, boiled down:
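Protection of CEM cells against HIV-1 measured as cell growth via soluble formazan read-out, with five concentrations tested on both infected and uninfected cells; failure to protect may reflect toxicity.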

For the compound `Cc1ccc(Cl)cc1N=NC(=O)NNc1cc(Cl)ccc1C`, the EC50 is greater than 200 µM and the IC50 came to 25.1 µM.
Consider `CC(=O)[C@H]1CC[C@@H]2[C@]1(C)CC=C1[C@]23C=C[C@]2(C[C@@H](O)CC[C@]12C)C(C(=O)O)C3C(=O)O` (some centres undefined), for which the outcome was inactive.
`O=C(O)CCCCCCC[C@H]1S[C@H]1CCCCCCO`: the outcome was inactive.
Consider `O/N=C1/C(=C/c2ccc(Cl)c(Cl)c2)CCCC1C(NO)c1ccc(Cl)c(Cl)c1` (centres undefined), for which the EC50 is greater than 3.16 µM and the IC50 was greater than 3.16 µM.
In the case of `Cc1cc(C)nc(NS(=O)(=O)c2ccc(N=c3c4ccccc4n(C)c4ccccc34)cc2)n1`, the outcome was inactive.
For `NC(=O)Nn1c2c(c3c1CCCC3)CCCC2`, the outcome was inactive.
`C=CCC1(OCc2ccccc2)C(=O)C(=O)OC1C1COC(C)(C)O1` (centres undefined): the EC50 is greater than 200 µM and the half-maximal inhibitory concentration (IC50) is greater than 200 µM.
Consider `COc1cc(OC)c2c(=O)c3cccc(O)c3oc2c1`, for which the EC50 was greater than 200 µM and the IC50 was greater than 200 µM.
For the compound `OCCC1(O)CCC(O)CC1` (centres undefined), the outcome was inactive.
For `Clc1ccc(C2ON2C2CCCCC2)cc1` (centres undefined), the result was inactive.
Take `COC(=O)[C@H](Cc1c[nH]c2ccccc12)NP(=O)(O)CCC1OC(n2cc(C)c(=O)[nH]c2=O)CC1N=[N+]=[N-]` (some centres undefined): the EC50 is greater than 200 µM and the 50% inhibitory concentration (IC50) is greater than 200 µM.
In the case of `C=C[C@H]1C=Cc2c(OC)cccc2[C@@H]1COP1(=S)NC(C)C(c2ccccc2)O1` (some centres undefined), the result was inactive.
In the case of `CCOc1nnnc2nc[nH]c12`, the EC50 was greater than 200 µM and the IC50 stood at 70.8 µM.
Take `CC1=C[C@H]2O[C@H]3C[C@H]4OC(=O)/C=C\C=C\C(=O)OCC[C@@H](C)C(O)C(=O)OC[C@@]2(CC1)[C@@]4(C)[C@]31CO1` (some centres undefined): the EC50 was greater than 0.363 µM and the half-maximal inhibitory concentration (IC50) came out at 0.0112 µM.
`O=C(NNC(=O)c1cc(/C=C/c2cccc([N+](=O)[O-])c2)[nH]c(=S)n1)Nc1ccc(Cl)cc1`: the EC50 was greater than 11 µM and the IC50 was greater than 11 µM.
For `CCCNC(=O)c1cc2ccccc2cc1C(=O)OC`, the EC50 was greater than 5.37 µM and the IC50 was greater than 5.37 µM.
For the compound `COc1ccc(N2C(=O)CC(C3CC(C(C)(C)C)CCC3=O)C2=O)cc1` (centres undefined), the EC50 was greater than 200 µM and the IC50 was greater than 200 µM.
Turning to `Cn1c(=O)cc(NNc2ccccc2)[nH]c1=O`, the EC50 is greater than 200 µM and the IC50 stood at 3.09 µM.
On the same counts, the results for `O=NNc1nc(-c2ccccn2)nc2ccccc12` are greater than 200 µM and 7.94 µM.
Regarding `CC(CC(N)C(=O)O)C(=O)O` (centres undefined), the EC50 was greater than 200 µM and the IC50 is greater than 200 µM.
For `COc1ccccc1NC(=S)N/N=C/c1c(C)n(C)n(-c2ccccc2)c1=O`, the EC50 was greater than 200 µM and the IC50 came to 64.6 µM.
Consider `Cc1ccc(S(=O)(=O)Nn2c3c(cc(C#N)c2=O)CCCC3)cc1`, for which the EC50 was greater than 200 µM and the IC50 was greater than 200 µM.
For `CCOC(=O)/C=C/n1c2ccccc2c(=O)c2cc(OC)ccc21`, the EC50 was greater than 22.4 µM and the IC50 is greater than 22.4 µM.
`CS/C1=C(\c2ccc(C)cc2)N(c2ccccc2)C(=O)C(=O)N(c2ccccc2)/C(c2ccc(C)cc2)=C(/SC)SS1`: the EC50 is greater than 200 µM and the concentration for half-maximal inhibition (IC50) is 47.9 µM.
As for `COc1cc2ccc(=O)oc2cc1O`, the EC50 is greater than 339 µM and the IC50 was 55 µM.
Regarding `O=C1NC(=O)C2(CCCCCC2)N1`, the EC50 was greater than 200 µM and the 50% inhibitory concentration (IC50) was greater than 200 µM.
As for `CCOC(=O)c1c(NC(=O)OC)c(C#N)c2n1CCCCC2`, the EC50 is greater than 200 µM and the half-inhibitory concentration (IC50) is greater than 200 µM.
Turning to `Cn1ccnc1CCc1ccc(F)cc1F`, the EC50 was greater than 200 µM and the 50% inhibitory concentration (IC50) was greater than 200 µM.
As for `O=C1/C(=C\c2ccccc2O)Cc2ccccc21`, the EC50 was greater than 148 µM and the half-maximal inhibitory concentration (IC50) came out at 28.2 µM.
For `CC(=O)OC1SC(OC(C)=O)C2OC(=O)OC12` (centres undefined) the same measures were greater than 871 µM and 155 µM.
For `COC1N(C2CC(N=[N+]=[N-])C(CO)O2)C(=O)NC(=O)C1(C)Cl` (centres undefined), the EC50 is 6.61 µM and the IC50 came to 891 µM.
For `N#CCCCCC12C3C(=O)N(c4ccccc4)C(=O)C3ON1O[C@@H]1C(=O)N(c3ccccc3)C(=O)[C@@H]12` (some centres undefined), the EC50 was greater than 200 µM and the IC50 was greater than 200 µM.
Regarding `CCCOC(C)OCCC#CCC(C)OC(=O)CC(Cl)(Cl)Cl` (centres undefined), the EC50 is greater than 200 µM and the 50% inhibitory concentration (IC50) is greater than 200 µM.
Regarding `O=[N+]([O-])c1cccc2nc3ccccc3c(NCCC[N+]3([O-])CCOCC3)c12`, the EC50 is greater than 2 µM and the IC50 was found to be 0.105 µM.
On the same counts, the results for `Cc1ccccc1NC(=O)Cc1csc2[n+]1C(=O)/C(=C\c1ccc3c(c1)OCO3)S2` are greater than 200 µM and 38.9 µM.
For the compound `N#CC1C(=O)C(=O)N(c2ccccc2)C1=O` (centres undefined), the EC50 is greater than 33.9 µM and the IC50 is greater than 33.9 µM.
Take `CC(=O)C(CN1CCOCC1)C(c1ccccc1)c1c(O)c2ccccc2oc1=O` (centres undefined): the EC50 is greater than 89.1 µM and the half-inhibitory concentration (IC50) amounted to 55 µM.
Consider `C=C(C)C(CCC(=O)O)(CCC(=O)O)C(C)=O`, for which the EC50 is greater than 1020 µM and the IC50 was greater than 1020 µM.
On to `CCOC(=O)CNCc1cc(=O)[nH]c2cc(Cl)ccc12`, for which the EC50 is greater than 200 µM and the half-maximal inhibitory concentration (IC50) came to 40.7 µM.
Take `Cc1ccc(S(=O)(=O)OCC23CCC(C2)C2CC23)cc1` (centres undefined): the EC50 was greater than 100 µM and the IC50 is greater than 100 µM.
Consider `CC(C)(C)c1cc(C(C)(C)C)c(P=C(Cl)Cl)c(C(C)(C)C)c1` (centres undefined), for which the EC50 is greater than 100 µM and the IC50 is greater than 100 µM.
With `Cc1ccnc(NC(=S)Nc2cc(C)ccn2)c1`, the EC50 was greater than 200 µM and the IC50 turned out to be 135 µM.
In the case of `COc1ccc2nc3ccc(OC)cc3c(S(=O)(=O)Cc3ccc([N+](=O)[O-])cc3)c2c1`, the EC50 was greater than 200 µM and the IC50 is greater than 200 µM.
With `O=C1CCCCC1C1(O)C(=O)Nc2cc(F)ccc21` (centres undefined), the EC50 was greater than 955 µM and the IC50 was determined as 178 µM.
Take `CC(=O)OC1C(C)(O)[C@@H]2CC[C@H]3C4(C)CCCC(C)(C)[C@H]4CC[C@]13C2` (some centres undefined): the EC50 was greater than 50.1 µM and the half-maximal inhibitory concentration (IC50) was greater than 50.1 µM.
For the compound `C/C(CC(C)C)=N/Nc1nc(C)cc(=O)[nH]1`, the EC50 was greater than 200 µM and the half-inhibitory concentration (IC50) is greater than 200 µM.
`COC(=O)C1CCCN1` (centres undefined): the outcome was inactive.
In the case of `N#Cc1c(-c2ccco2)cc(-c2ccc(NCc3nc4ccccc4[nH]3)cc2)nc1N`, the EC50 is greater than 12.9 µM and the IC50 was greater than 12.9 µM.
For the compound `O=C1/C(=N\O)C(c2ccccc2)Oc2ccccc21` (centres undefined), the concentration giving a half-maximal response (EC50) is 20.9 µM and the IC50 is 38 µM.
In the case of `CCC(=O)C(C)C(=O)C(=O)NCCNC(=O)C(=O)C(C)C(=O)CC` (centres undefined), the result was inactive.
As to `Cc1cn(C2CC(O)C(CNC(=O)N(O)C3CC(n4cc(C)c(=O)[nH]c4=O)OC3CO)O2)c(=O)[nH]c1=O` (centres undefined), the EC50 was greater than 200 µM and the concentration for half-maximal inhibition (IC50) was greater than 200 µM.
For `COc1ccc(C(c2ccccc2)C(C)C(=O)c2c(C)cc(C)cc2C)cc1` (centres undefined), the EC50 is greater than 19.5 µM and the IC50 is greater than 19.5 µM.
`COC(=O)c1cc2c(nc1C)-c1ccccc1OS2(=O)=O`: the outcome was inactive.
Take `CC(=O)c1ccc(NC(=O)CSc2nc(C)nc3c2sc(=S)n3-c2ccccc2)cc1`: the EC50 is greater than 200 µM and the half-maximal inhibitory concentration (IC50) is greater than 200 µM.
Consider `CC1CCOC(Sc2ccccc2)C1` (centres undefined), for which the result was inactive.
Consider `C=C=C(CC(CC(=C)Br)(C(=O)OC)C(=O)OC)S(=O)(=O)c1ccccc1`, for which the EC50 was greater than 200 µM and the IC50 worked out at 1.45 µM.
Regarding `CCO/C=C/c1cc2c(c3c1-c1c(cc(OC)c(OC)c1OC)C3=O)OCO2`, the EC50 was greater than 6.46 µM and the half-maximal inhibitory concentration (IC50) was greater than 6.46 µM.
For the compound `O=C(C=P(c1ccccc1)(c1ccccc1)c1ccccc1)CC(=S)CC(=O)C=P(c1ccccc1)(c1ccccc1)c1ccccc1`, the result was inactive.
On to `C/C(O)=C/c1nc2sc(C)c(C)c2c(=O)s1`, for which the EC50 was greater than 200 µM and the concentration for half-maximal inhibition (IC50) came to 39.8 µM.
In the case of `CCOc1ccc(NC(=O)CC2SC(=Nc3ccc(C)cc3)NC2=O)cc1` (centres undefined), the EC50 was greater than 67.6 µM and the IC50 is greater than 67.6 µM.
For the compound `CCc1n[nH]c(CC)c1CCCCCCOc1ccc(OC)cc1Cl`, the EC50 was greater than 200 µM; the IC50 was 9.77 µM and 10 µM.
`C[N+](C)([O-])CCNC(=O)c1cccc2cc3ccccc3nc12`: the outcome was inactive.
Take `COc1cccc(/C=C(\C#N)C(=O)O)c1`: the EC50 is greater than 1230 µM and the IC50 was 158 µM.
As for `CN=C1CN=C(OP(=O)(N2CCOCC2)N2CCOCC2)c2cc(Cl)ccc2N1`, the EC50 is greater than 6.17 µM and the 50% inhibitory concentration (IC50) is greater than 6.17 µM.
With `CC1(C)C[C@H](O)[C@H](O)[C@]23C(=O)O[C@H](O)[C@H]2C(C=O)=CC[C@@H]13`, the EC50 was greater than 200 µM and the concentration for half-maximal inhibition (IC50) was greater than 200 µM.
Consider `COc1ccc(OC)c2c3c(ccc12)C(c1ccccc1)OC3=O` (centres undefined), for which the result was inactive.
With `CC(C)[C@@H]1CC[C@@H](C)C[C@H]1OC(=O)/C=C1/C2C=CC(O2)C1C(=O)O[C@@H]1C[C@H](C)CC[C@H]1C(C)C` (some centres undefined), the EC50 was greater than 200 µM and the IC50 was greater than 200 µM.
As for `C[C@@H]1[C@@H](C)C(c2ccccc2)O[Si]1(C(C)(C)C)C(C)(C)C` (some centres undefined), the EC50 is greater than 100 µM and the IC50 was determined as 56.2 µM.
As to `C[N+](C)([O-])CCC=C1c2ccccc2CCc2ccccc21`, the EC50 is greater than 200 µM and the concentration for half-maximal inhibition (IC50) was determined as 105 µM.
As for `CC(C)=CCC/C(C)=C/CC/C(C)=C/OP(=O)(O)OP(=O)(O)O`, the EC50 was greater than 162 µM and the IC50 was greater than 162 µM.
`CC(O)(P(=O)(O)O)P(=O)(O)OCC(O)CN1CCOCC1` (centres undefined): the EC50 was greater than 100 µM and the IC50 is greater than 100 µM.
Take `CC(=O)OC1(C)C=Cc2ccccc2/C1=N/S(=O)(=O)c1ccccc1` (centres undefined): the EC50 is greater than 200 µM and the concentration for half-maximal inhibition (IC50) came out at 31.6 µM.
For `Cc1cc(O)cc2c1O[C@@]1(C)CCC3[C@@]4(C)CC[C@H](O)C(C)(C)C4CC[C@@]3(C)[C@H]1C2` (some centres undefined), the outcome was inactive.
On to `Cc1nc(NCc2ccccc2)c2cc[nH]c2n1`, for which the EC50 was greater than 174 µM and the IC50 amounted to 107 µM.
Take `Oc1cc(Cl)cc2cc(Cl)cnc12`: the outcome was inactive.
